Test results taken from ChEMBL document CHEMBL3352794, “Identification of potent inhibitors of the chicken soluble epoxide hydrolase” (Bioorg Med Chem Lett, 2015).
In brackets after ≈: the same amount, converted by molar mass.

Assays:
[1] = Inhibition of recombinant purified chicken soluble epoxide hydrolase using fluorescent PHOME as substrate; design: species or system Gallus gallus
[2] = Stability in chicken liver microsomes assessed as compound remaining at 1 uM after 30 mins by mass spectrometry in presence of NADPH
[3] = Solubility of the compound in 0.1 M sodium phosphate buffer at pH 7.4 containing 1% DMSO by turbidity method; settings: 0.1 M sodium phosphate buffer with 1% DMSO
[4] = Stability in human liver microsomes assessed as compound remaining at 1 uM after 30 mins by mass spectrometry in presence of NADPH
[5] = Stability in human liver microsomes assessed as compound remaining at 1 uM after 30 mins by mass spectrometry
[6] = Stability in chicken liver microsomes assessed as compound remaining at 1 uM after 30 mins by mass spectrometry
[7] = Inhibition of recombinant purified chicken soluble epoxide hydrolase by FRET-based competitive displacement assay in presence of ACPU; design: species or system Gallus gallus

For `CC(=O)N1CCN(CCCCOc2cccc(NC(=O)NC34CC5CC(CC(C5)C3)C4)c2)CC1`, which IC50 [1] is on record?
The IC50 was 4 nM.

Which IC50 [1] does the source give for `CC(=O)N1CCN(CCCCOc2ccc(NC(=O)NC34CC5CC(CC(C5)C3)C4)cc2)CC1` here?
Its IC50 is 2.3 nM.

For `NS(=O)(=O)c1ccc(-n2nc(CCCNC(=O)NC3CCCCCC3)cc2-c2ccccc2)cc1`, which IC50 [1] is on record?
Its IC50 is 3.3 nM.

Which IC50 [1] does the source give for `Cc1cc(C)c(CN2CCC(C(=O)NC3CCCCCC3)CC2)c(C)c1` here?
Its IC50 is 13 nM.

For `O=C(Nc1ccc(OCCOCCOCC(F)(F)F)cc1)NC12CC3CC(CC(C3)C1)C2`, which IC50 [1] is on record?
The IC50 was 4.4 nM.

Which IC50 [1] does the source give for `C=CCO[C@H]1CC[C@@H](NC(=O)NC23CC4CC(CC(C4)C2)C3)CC1` here?
Its IC50 is 1.7 nM.

Which IC50 [1] does the source give for `CCCCCOC(=O)C1CCCC(NC(=O)NC23CC4CC(CC(C4)C2)C3)C1` (stereo not given) here?
Its IC50 is 5.7 nM.

Which remaining at 0.5 h, 1 µM [2] does the source give for `O=C(O)CCCCCCCCCCCNC(=O)NC12CC3CC(CC(C3)C1)C2` here?
The remaining at 0.5 h, 1 µM was 70%.

What about the IC50 [1] of the same molecule?
The IC50 was 13 nM.

And the solubility kinetic [3]?
The solubility kinetic was 37.5 µM (≈ 14.7 µg/mL).

And the remaining at 0.5 h, 1 µM [4]?
Its remaining at 0.5 h, 1 µM is 69%.

And the remaining at 0.5 h, 1 µM [5]?
The remaining at 0.5 h, 1 µM was 98%.

What about the remaining at 0.5 h, 1 µM [6] of the same molecule?
The remaining at 0.5 h, 1 µM was 106%.

With `O=C(NC1CCCCCC1)N[C@H]1CC[C@@H](Oc2ccc(F)cc2)CC1` as the molecule, how does the IC50 [1] read?
Its IC50 is 2.7 nM.

For `Cc1ccc(S(=O)(=O)N2CCC(C(=O)NCC3CCCCC3)CC2)c(C)c1`, which IC50 [1] is on record?
The IC50 was 3 nM.

Which results are given for `CNC(=O)c1ccc(O[C@H]2CC[C@H](NC(=O)NC34CC5CC(CC(C5)C3)C4)CC2)cc1`?
Ki [7]: < 0.02 nM; remaining at 0.5 h, 1 µM [2]: 96%; IC50 [1]: 2.4 nM; solubility kinetic [3]: 50 µM (≈ 21.3 µg/mL); remaining at 0.5 h, 1 µM [4]: 94%; remaining at 0.5 h, 1 µM [5]: 101%; remaining at 0.5 h, 1 µM [6]: 96%

For `CNC(=O)c1cc(O[C@H]2CC[C@H](NC(=O)Nc3ccc(Cl)c(C(F)(F)F)c3)CC2)ccn1`, which IC50 [1] is on record?
Its IC50 is 11 nM.

For `CNC(=O)c1ccc(O[C@H]2CC[C@H](NC(=O)Nc3ccc(Cl)c(C(F)(F)F)c3)CC2)cn1`, which IC50 [1] is on record?
The IC50 was 5.1 nM.

For `COc1ccc(O[C@H]2CC[C@@H](NC(=O)NC34CC5CC(CC(C5)C3)C4)CC2)cc1`, which remaining at 0.5 h, 1 µM [2] is on record?
The remaining at 0.5 h, 1 µM was 2.1%.

What about the remaining at 0.5 h, 1 µM [4] of the same molecule?
Its remaining at 0.5 h, 1 µM is 57%.

What about the remaining at 0.5 h, 1 µM [5] of the same molecule?
The remaining at 0.5 h, 1 µM was 98%.

And the remaining at 0.5 h, 1 µM [6]?
Its remaining at 0.5 h, 1 µM is 69%.

For `O=C(CCCCCCCCCCCNC(=O)NC12CC3CC(CC(C3)C1)C2)N[C@@H]1O[C@H](CO)[C@H](O)[C@@H](O)[C@H]1O`, which IC50 [1] is on record?
The IC50 was 3.5 nM.

Which IC50 [1] does the source give for `CCCCCOC(=O)C1CCC(NC(=O)NC23CC4CC(CC(C4)C2)C3)CC1` (stereo not given) here?
Its IC50 is 5.2 nM.

Which IC50 [1] does the source give for `CC(C)=CCO[C@H]1CC[C@@H](NC(=O)NC23CC4CC(CC(C4)C2)C3)CC1` here?
Its IC50 is 5.3 nM.

Which IC50 [1] does the source give for `O=C(NCCCc1ccccc1)N[C@H]1CC[C@@H](Oc2ccc(F)cc2)CC1` here?
Its IC50 is 3.5 nM.

Which IC50 [1] does the source give for `O=C(NC1CCCCCCC1)N[C@H]1CC[C@@H](Oc2ccc(F)cc2)CC1` here?
Its IC50 is 5.1 nM.

Which IC50 [1] does the source give for `O=C(Nc1ccc(C(F)(F)F)cc1)N[C@H]1CC[C@H](OCc2c(F)cccc2F)CC1` here?
Its IC50 is 4.4 nM.

For `O=C(Nc1cccc(Cl)c1)N[C@H]1CC[C@H](OCc2c(F)cccc2F)CC1`, which IC50 [1] is on record?
Its IC50 is 2 nM.

For `O=C(Nc1cccc(Br)c1)N[C@H]1CC[C@H](OCc2c(F)cccc2F)CC1`, which IC50 [1] is on record?
The IC50 was 2.4 nM.

For `O=C(NCCCc1ccccc1)N[C@H]1CC[C@H](OCc2c(F)cccc2F)CC1`, which IC50 [1] is on record?
Its IC50 is 1.9 nM.

With `CCOC(=O)C(C)OCCCCCCCCNC(=O)NC12CC3CC(CC(C3)C1)C2` (stereo not given) as the molecule, how does the IC50 [1] read?
Its IC50 is 4.4 nM.

For `COC(=O)c1ccc(C(=O)N2CCC(NC(=O)Nc3ccc(OC(F)(F)F)cc3)CC2)cc1`, which remaining at 0.5 h, 1 µM [2] is on record?
The remaining at 0.5 h, 1 µM was 94%.

And the IC50 [1]?
Its IC50 is 1.4 nM.

And the solubility kinetic [3]?
The solubility kinetic was 75 µM (≈ 34.9 µg/mL).

What about the remaining at 0.5 h, 1 µM [4] of the same molecule?
Its remaining at 0.5 h, 1 µM is 2.7%.

What about the remaining at 0.5 h, 1 µM [5] of the same molecule?
The remaining at 0.5 h, 1 µM was 1.2%.

And the remaining at 0.5 h, 1 µM [6]?
The remaining at 0.5 h, 1 µM was 105%.

Which IC50 [1] does the source give for `O=C(NC12CC3CC(CC(C3)C1)C2)N[C@H]1CC[C@H](OCc2cc(F)cc(F)c2)CC1` here?
The IC50 was 3.1 nM.

Which IC50 [1] does the source give for `CC(C)(C)OC(=O)N1CCC(NC(=O)NC23CC4CC(CC(C4)C2)C3)CC1` here?
The IC50 was 7.5 nM.

Which IC50 [1] does the source give for `NC(=O)CCCCCCCCCCCNC(=O)NC12CC3CC(CC(C3)C1)C2` here?
Its IC50 is 2.1 nM.

Which results are given for `O=C(NC12CC3CC(CC(C3)C1)C2)N[C@H]1CC[C@H](Oc2ccc(CO)cc2)CC1`?
Ki [7]: < 0.02 nM; remaining at 0.5 h, 1 µM [2]: 24%; IC50 [1]: 1.2 nM; solubility kinetic [3]: > 100 µM; remaining at 0.5 h, 1 µM [4]: 53%; remaining at 0.5 h, 1 µM [5]: 91%; remaining at 0.5 h, 1 µM [6]: 73%

For `N#Cc1ccc(O[C@H]2CC[C@H](NC(=O)Nc3ccc(Cl)c(C(F)(F)F)c3)CC2)cc1`, which IC50 [1] is on record?
The IC50 was 3.6 nM.

What does the source list for `CNC(=O)c1ccc(O[C@H]2CC[C@@H](NC(=O)Nc3ccc(OC(F)(F)F)cc3)CC2)cc1`?
remaining at 0.5 h, 1 µM [2]: 89%; IC50 [1]: 2.1 nM; solubility kinetic [3]: 10 µM (≈ 4.51 µg/mL); remaining at 0.5 h, 1 µM [4]: 5.4%; remaining at 0.5 h, 1 µM [5]: 101%; remaining at 0.5 h, 1 µM [6]: 119%

Which IC50 [1] does the source give for `CCN(CC)C(=O)c1cc(O[C@H]2CC[C@H](NC(=O)Nc3ccc(Cl)c(C(F)(F)F)c3)CC2)ccn1` here?
Its IC50 is 9.6 nM.

Which IC50 [1] does the source give for `NS(=O)(=O)c1ccc(-n2nc(CCCNC(=O)Nc3ccc(C(F)(F)F)cc3)cc2-c2ccc(F)cc2)cc1` here?
The IC50 was 5.7 nM.

Which IC50 [1] does the source give for `O=C(NC12CC3CC(CC(C3)C1)C2)N[C@H]1CC[C@@H](Oc2ccc(F)cc2)CC1` here?
Its IC50 is 1.2 nM.

Which IC50 [1] does the source give for `O=C(NCCCCOc1ccc(F)cc1)NC12CC3CC(CC(C3)C1)C2` here?
Its IC50 is 9.6 nM.
